Laboratory results reported in patent US6338296B1, “Release device for slowly releasing sprout inhibitor into packages of potatoes” (priority 1996, dated 2002).

System: potatoes
Test: sprout inhibition in a ventilated package of potatoes with a pouch of silica gel carrying 1,4-DMN
Type: in vivo, potato
Source text: A package containing ten pounds of potatoes (approximately 5 kg) can be treated according to the instant invention with about 5 grams of silica gel contacted with 2 grams of 1,4-DMN. The substantially saturated silica gel may be placed in a pouch made of cotton fabric having a tight weave. The weave is sufficiently tight that the minute, generally less than 0.5 mm and often less than 0.2 mm, particles are retained in the fabric pouch.
The potatoes, in a plastic bag with numerous ventilation holes, may be allowed to be in a storage room without air conditioning. A single pouch may be placed in the bag with the potatoes.
For example, amounts of DMN from about 0.02 gram to about 1.0 gram per pound of potatoes (˜0.5 kg) may be effectively used. For various reasons, lower amounts are desirable, consistent with effectiveness for the amount of potatoes, volume of voids, length of residence time of the potatoes in the package and range of temperatures to be experienced.

## Cc1ccc(C)c2ccccc12 [1,4-DMN, 1,4-dimethyl naphthalene]
0.2 grams of 1,4-DMN per one pound (~0.5 kg) of potatoes
  preclusion of sprouting: adequately precludes sprouting
Ten pounds of potatoes in ventilated plastic bag, one cotton pouch with about 5 grams silica gel and 2 grams 1,4-DMN, unconditioned store room, 30 days
  sprouting after 30 days: No significant sprouting
